Laboratory results published in US10830762B2, “Compositions and methods for inducing conformational changes in cereblon and other E3 ubiquitin ligases” (Celgene Corporation, priority 2015, dated 2020).

Key:
[1] = tested on: TMD8 (ABC) or Karpas 422 (GCB) cells; assay: 3H-thymidine incorporation proliferation assay with lenalidomide co-treatment; assay type: cell-based; conditions: co-treatment with 10 μM lenalidomide; 3H-thymidine incorporation
[2] = tested on: H929 multiple myeloma cell line; assay: Apoptosis in multiple myeloma cell line H929; assay type: cell-based; conditions: 0.01 nM to 1000 nM; assessed 24 hrs later
Procedure: The multiple myeloma cell line, H929, was cultured and treated with Compound C or other CMA analogs at various concentrations from 0.01 nM to 1000 nM. Apoptosis was assessed at 24 hrs. later.

[3] = tested on: panel of tumor cell lines (B-lymphoma, breast, CNS, colon, kidney, leukemia, lung, melanoma, multiple myeloma, ovary, prostate); assay: Potency across a panel of tumor cell lines; assay type: cell-based
Procedure: The potency of Compound C was assessed across a panel of tumor cell lines, including B-lymphoma, breast, CNS, colon, kidney, leukemia, lung, melanoma, multiple myeloma, ovary and prostate.

[4] = tested on: DF15 / DF15R myeloma cells; assay: Cell proliferation assay of DF15, DF15R and DF15R re-expressing CRBN treated with Compound C; assay type: cell-based
Procedure: (§1) Immunoblot analysis of extracts prepared from U266 multiple myeloma cells and pre-incubated with vehicle DMSO (D), Pomalidomide (Pom) or Compound C at the indicated concentrations, and bound to thalidomide analog affinity beads, washed and eluted with SDS buffer as previously described (Ito et al, 2010; Lopez-Girona et al, 2012). Samples were subjected to SDS-PAGE and immunoblot analysis using anti-CRBN 65-76 (1:10,000 dilution; Red signal) and anti-DDB1 (Cell Signaling) (1:2,000 dilution; Green signal). […] Cell proliferation assay of DF15 (sensitive), DF15R (resistant; CRBNnull) cells treated with a dose response of Compound C. Assays were done in triplicate and error bars represent s.d. Data for each cell line was normalized to treatment with vehicle (DMSO). […] Cell proliferation assay of DF15 (sensitive), DF15R (resistant; CRBNnull), DF15R-hCRBNWT (human CRBN), DF15R-RFP cells treated with a dose response of Compound C. […] Assays were done in triplicate and error bars represent s.d. Data for each cell line was normalized to treatment with vehicle (DMSO).

[5] = tested on: MDA-MB-231 breast cancer cells; assay: Growth inhibition and pro-apoptotic activity in breast cancer cells treated with CRBN siRNA; assay type: cell-based; conditions: CRBN siRNA vs negative control
Procedure: Breast cancer cells (MDA-MB-231) were treated with CRBN siRNA or a negative control. Compound C was added at a concentration between 0 to 100 μM, and CRBN levels were assessed at 48 hours post treatment.
Compound C-mediated growth inhibition and pro-apoptotic activity were also assessed.

human GSPT1 [6] = target: T1, human GSPT1 (Homo sapiens, UniProt P15170); assay: Compound-induced GSPT1 degradation by Western blot in 293T HEK cells; assay type: cell-based; conditions: full-length and truncated (lacking N-terminal 138 residues) GSPT1
T1 construct: expressed in transfected cells; host or cells: 293T HEK cells
From the text: (§2) FIG. 28A illustrates a full-length human GSPT1 and a truncated mutant form, which lacks the N-terminal 138 amino acid residues. […] Thus, the truncated mutant human GSPT1 maintained the functionality of the full-length protein and can be used in studies below.
(§3) To determine the critical region in the human GSPT1 that contributes to the Compound C-induced degradation, a plethora of chimeric constructs containing various domains of human GSPT1 and yeast SUP35 were generated (FIG. 30A). These recombinant proteins were tested for Compound C-induced degradation by Western blot (FIGS. 30B-30D). As the results shown, a 32-amino acid fragment in the C-terminus of human GSPT1 (residues 562-593) is critical for Compound C-induced degradation.
(§4) To further map the essential amino acid residues in this 32-amino acid fragment of human GSPT1, various point mutations within the fragment were generated and tested for Compound C-induced degradation of GSPT1 and Compound C-induced interaction between CRBN and GSPT1. […] Among these homologues, only the yeast SUP35 is resistant to Compound C. […] Other mutations, […].

human GSPT1 [7] = target: T2, human GSPT1 (Homo sapiens, UniProt P15170, G437N); assay: as above; assay type: cell-based; conditions: GSPT1 G575N mutation
T2 construct: expressed in transfected cells; host or cells: 293T HEK cells
From the text: as §2, §3, §4

yeast homologue SUP35 = yeast homologue SUP35 (Saccharomyces cerevisiae, UniProt P05453); assay: Compound-induced degradation of yeast homologue SUP35; assay type: cell-based; conditions: yeast SUP35, in contrast to human GSPT1
CRBN-GSPT1 = assay: Compound-induced interaction (in vitro binding) of CRBN with GSPT1; design: species or system human
From the text: as §2, §4

[8] = tested on: human GSPT1 (G575N mutation); assay: Growth inhibition and activation of ATF4 and apoptosis pathways with GSPT1 G575N mutation; assay type: cell-based
IKZF1 = target: T3, IKZF1 (Homo sapiens, UniProt Q13422+Q96SW2); assay: IKZF1 degradation in HEK293T cells co-transfected with wild-type or mutant CRBN; assay type: cell-based
T3 construct: expressed in transfected cells; host or cells: HEK293T cells

GSPT1 [9] = target: T4, GSPT1 (Homo sapiens, UniProt P15170+Q96SW2); assay: GSPT1 degradation in HEK293T cells transfected with wild-type or mutant CRBN; assay type: cell-based; conditions: murine CRBN V377E
T4 construct: endogenous in cells; host or cells: HEK293T cells
From the text: (§5) A key feature of immunomodulatory drug biology is the striking resistance observed in rodent species. This feature was historically a confounding factor in establishing the efficacy and safety risks associated with thalidomide. It was shown that, in contrast to human cereblon, murine cereblon is unable to rescue immunomodulatory drug sensitivity. Chamberlain et al., Nature structural & mole. biol. 2014, 21:803-809. It was proposed that the molecular basis for this would lie in two variable residues on the cereblon surface proximal to the tri-Tryp pocket, E377V and V388I. […] Kronke et al., Nature 2015, 523:183-188. Despite the potent effect seen on human cells, murine cells are resistant to the antiproliferative and pro-apoptotic effects of Compound C (data not shown). […] The dependence of GSPT1 degradation upon E377 can be rationalized by the crystal structure: the side chain of E377 mediates hydrogen bond interactions with the urea moiety of Compound C.

GSPT1 [10] = target: T5, GSPT1 (Homo sapiens, UniProt P15170+Q96SW2, E377V/V100A); assay: as above; assay type: cell-based; conditions: human CRBN E377V
T5 construct: endogenous in cells; host or cells: HEK293T cells
From the text: as §5

GSPT1 [11] = target: T6, GSPT1 (Homo sapiens, UniProt P15170+Q96SW2, V100A); assay: as above; assay type: cell-based; conditions: human WT CRBN
T6 construct: endogenous in cells; host or cells: HEK293T cells
From the text: as §5

GSPT1 [12] = target: T7, GSPT1 (Homo sapiens, UniProt P15170+Q96SW2, V100A/V388I); assay: as above; assay type: cell-based; conditions: human CRBN V388I
T7 construct: endogenous in cells; host or cells: HEK293T cells
From the text: as §5

murine cells = assay: Antiproliferative and pro-apoptotic effects on murine cells; assay type: cell-based; conditions: murine cells (data not shown)
From the text: as §5

CRBN = CRBN (Homo sapiens, UniProt Q96SW2); assay: Thalidomide analog affinity bead competition assay in U266 cell extracts; assay type: binding; design: endogenous in cells; host or cells: U266 multiple myeloma cells (extract); conditions: competition with thalidomide analog affinity beads
Procedure: as §1
Coupling of thalidomide analog to FG-magnetic nanoparticle beads (Tamagawa Seiko Co. Tokyo, Japan) was carried out as described (Ito et al., Science, 2010. 327(5971):1345-50), and cell extract binding assays to these beads were performed with minor modifications. […]

Cc1ccc(NC(=O)NCc2ccc3c(c2)CN(C2CCC(=O)NC2=O)C3=O)cc1Cl (stereo not drawn) [Compound C, 1-(3-chloro-4-methylphenyl)-3-((2-(2,6-dioxopiperidin-3-yl)-1-oxoisoindolin-5-yl)methyl)urea]
anti-proliferative effects on co-treatment with lenalidomide [1]: blocks anti-proliferative effects
early apoptosis [2]: induced early apoptosis
Therapeutic Index ([3]; across the cancer cell panel): overall low Therapeutic Index
potency / activity in tumor cell lines ([3]; panel of tumor cell lines): potent across a panel of tumor lines
CRBN dependence of anti-proliferative activity ([4]; DF15 (sensitive) vs DF15R (CRBN null)): CRBN is required for the anti-proliferative activity
anti-proliferative activity after re-expression of human CRBN ([4]; DF15R-hCRBNWT): rescues Compound C anti-proliferative activity
CRBN dependence of growth inhibition and pro-apoptotic activity [5]: CRBN is required for both inhibition and pro-apoptotic activity
GSPT1 degradation (human GSPT1 [6]): induced degradation of the full-length GSPT1 and the truncated form
GSPT1 degradation (human GSPT1 [7]): blocked Compound C-induced degradation
SUP35 degradation (yeast homologue SUP35): did not exhibit Compound C-induced degradation
interaction between CRBN and GSPT1 (CRBN-GSPT1; GSPT1 G575N mutation): blocked Compound C-induced interaction between CRBN and GSPT1
interaction of CRBN with GSPT1 (CRBN-GSPT1; full-length and truncated GSPT1): induced interaction of CRBN with the full-length GSPT1 as well as the truncated GSPT1
growth inhibition and downstream activation of ATF4 and apoptosis pathways [8]: blocked Compound C-induced growth inhibition and Compound C-induced downstream activation of ATF4 and apoptosis pathways
IKZF1 degradation (IKZF1; human CRBN V388I): blocks the degradation of IKZF1
IKZF1 degradation (IKZF1; human WT CRBN): degradation of both IKZF1 and GSPT1
GSPT1 degradation (GSPT1 [9]): restores GSPT1 degradation
GSPT1 degradation (GSPT1 [10]): blocks the degradation of GSPT1
GSPT1 degradation (GSPT1 [11]): degradation of both IKZF1 and GSPT1
GSPT1 degradation (GSPT1 [12]): maintained
antiproliferative and pro-apoptotic effects (murine cells): resistant
binding to CRBN protein in MM cell extracts (CRBN): binds CRBN protein
